target: T1, human VR1 receptors (Homo sapiens, UniProt Q8NER1); experiment: Human VR1 antagonist assay, Ca2+ imaging, capsaicin stimulation; type: cell-based; conditions: human VR1 expressing cells; concentration required to reduce capsaicin-evoked Ca2+ influx by 50%; capsaicin 300 nM; read-out: hVR1 IC50
T1 construct: host or cells: cells that highly express human VR1 receptors
Excerpt: VR1 antagonistic activity can be determined by the Ca^2+ imaging assay using human VR1 highly expressing cells. The cells that highly express human VR1 receptors are obtainable from several different conventional methods. The one standard method is cloning from human Dorsal Root Ganglion (DRG) or kidney according to the methods such as described in the journal article; Nature, 389, pp 816-824, 1997. Alternatively VR1 receptors highly expressing human keratinocytes are also known and published in the journal article (Biochemical and Biophysical Research Communications, 291, pp 124-129, 2002). […] Further more, the method to up regulate human VR1 gene, which is usually a silent gene or don't produce detectable level of VR1 receptors, is also available to obtain propriety cells. Such genetic modification method was described in detail; Nat. Biotechnol., 19, pp 440-445, 2001.
The cells that express human VR1 receptors were maintained in culture flask at 37° C. in an environment containing 5% CO2 until use in the assay. The intracellular Ca^2+ imaging assay to determine VR1 antagonistic activities were done by following procedures.
The culture medium was removed from the flask and fura-2/AM fluorescent calcium indicator was added to the flask at a concentration of 5 μM in the medium. The flask was placed in CO2 incubator and incubated for 1 hour. Then the cells expressing the human VR1 receptors were detached from the flask follow by washing with phosphate buffer saline, PBS(−) and re-suspended in assay buffer. The 80 μl of aliquot of cell suspension (3.75×10^5 cells/ml) was added to the assay plate and the cells were spun down by centrifuge (950 rpm, 20° C., 3 minutes).
The capsaicin-induced changes in the intracellular calcium concentration were monitored using FDSS 6000 (Hamamatsu Photonics, Japan), a fluorometric imaging system. The cell suspension in Krebs-Ringer HEPES (KRH) buffer (115 mM NaCl, 5.4 mM KCl, 1 mM MgSO4, 1.8 mM CaCl2, 11 mM D-Glucose, 25 mM HEPES, 0.96 mM Na2HPO4, pH 7.3) were pre-incubated with varying concentrations of the test compounds or KRH buffer (buffer control) for 15 minutes at room temperature under the dark condition. Then capsaicin solution, which gives 300 nM in assay mixture, was automatically added to the assay plate by the FDSS 6000.
The monitoring of the changes in the fluorescence signals (λex=340 nm/380 nm, λem=510-520 nm) was initiated at 1 minute prior to the addition of capsaicin solution or acidic buffer and continued for 5 minute.

T1 sequence (Q8NER1 whole entry): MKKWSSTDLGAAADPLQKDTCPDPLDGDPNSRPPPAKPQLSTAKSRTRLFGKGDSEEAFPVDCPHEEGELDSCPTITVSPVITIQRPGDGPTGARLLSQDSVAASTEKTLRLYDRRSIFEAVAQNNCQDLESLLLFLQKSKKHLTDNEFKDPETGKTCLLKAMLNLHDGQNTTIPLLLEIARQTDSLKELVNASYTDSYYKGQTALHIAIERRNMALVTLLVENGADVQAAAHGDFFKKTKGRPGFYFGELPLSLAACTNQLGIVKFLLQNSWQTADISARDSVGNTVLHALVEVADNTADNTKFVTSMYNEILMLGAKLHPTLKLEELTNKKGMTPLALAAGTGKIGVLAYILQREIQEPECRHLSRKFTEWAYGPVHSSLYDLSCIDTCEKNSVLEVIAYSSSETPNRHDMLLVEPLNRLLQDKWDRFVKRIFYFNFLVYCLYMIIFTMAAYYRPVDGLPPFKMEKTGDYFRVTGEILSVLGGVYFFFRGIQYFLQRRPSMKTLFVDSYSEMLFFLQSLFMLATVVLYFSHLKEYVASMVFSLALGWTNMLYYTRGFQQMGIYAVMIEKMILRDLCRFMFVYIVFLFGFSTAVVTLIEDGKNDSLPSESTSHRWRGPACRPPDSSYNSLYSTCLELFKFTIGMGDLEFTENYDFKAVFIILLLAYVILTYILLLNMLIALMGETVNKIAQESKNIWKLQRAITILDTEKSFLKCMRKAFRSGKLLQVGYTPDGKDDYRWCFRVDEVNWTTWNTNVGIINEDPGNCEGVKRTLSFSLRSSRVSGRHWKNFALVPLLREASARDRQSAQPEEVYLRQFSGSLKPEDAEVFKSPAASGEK

SMILES	IC50
Cc1cccnc1C(=O)CNC(=O)C1CC1c1ccc(C(C)(C)C)cc1 (stereo not shown) [Example 1, 2-(4-Tert-Butylphenyl)-N-[2-(3-Methylpyridin-2-yl)-2-Oxoethyl]Cyclopropanecarboxamide]	102 nM
COc1ccc(C)c(C(=O)CNC(=O)C2CC2c2ccc(C(C)(C)C)cc2)c1 (stereo not shown) [Example 2, 2-(4-Tert-Butylphenyl)-N-[2-(5-Methoxy-2-Methylphenyl)-2-Oxoethyl]Cyclopropanecarboxamide]	1010 nM
Cc1ccc(O)cc1C(=O)CNC(=O)C1CC1c1ccc(C(C)(C)C)cc1 (stereo not shown) [Example 3, 2-(4-Tert-Butylphenyl)-N-[2-(5-Hydroxy-2-Methylphenyl)-2-Oxoethyl]Cyclopropanecarboxamide]	704 nM
Cc1cccnc1C(=O)CNC(=O)C1CC1c1ccc(C(C)(C)C)c(F)c1 (stereo not shown) [Example 4, 2-(4-Tert-Butyl-3-Fluorophenyl)-N-[2-(3-Methylpyridin-2-yl)-2-Oxoethyl]Cyclopropanecarboxamide]	99 nM
Cc1cccnc1C(=O)CNC(=O)C1CC1c1ccc(C(C)(C)C(F)(F)F)cc1 (stereo not shown) [Example 5, N-[2-(3-Methylpyridin-2-yl)-2-Oxoethyl]-2-[4-(2,2,2-Trifluoro-1,1-Dimethylethyl)Phenyl]Cyclopropanecarboxamide]	111 nM
Cc1cccnc1C(=O)CNC(=O)C1CC1(C)c1ccc(C(C)(C)C)cc1 (stereo not shown) [Example 6, 2-(4-Tert-Butylphenyl)-2-Methyl-N-[2-(3-Methylpyridin-2-yl)-2-Oxoethyl]Cyclopropanecarboxamide]	134 nM
Cc1cccnc1C(=O)CNC(=O)C1CC1c1ccc(C(C)(C)C)c(Cl)c1 (stereo not shown) [Example 7, 2-(4-Tert-Butyl-3-Chlorophenyl)-N-[2-(3-Methylpyridin-2-yl)-2-Oxoethyl]Cyclopropanecarboxamide]	92 nM
CC(C)(C)c1ccc(C2CC2C(=O)NCC(=O)c2ncccc2C(F)(F)F)cc1F (stereo not shown) [Example 8, 2-(4-Tert-Butyl-3-Fluorophenyl)-N-[2-(3-Trifluoromethylpyridin-2-yl)-2-Oxoethyl]Cyclopropanecarboxamide]	102 nM
Cc1cccnc1C(=O)CNC(=O)C1C(c2ccc(C(C)(C)C)cc2)C1(F)F (stereo not shown) [Example 9, 3-(4-Tert-Butylphenyl)-2,2-Difluoro-N-[2-(3-Methylpyridin-2-yl)-2-Oxoethyl]Cyclopropanecarboxamide]	306 nM
Cn1ccnc1C(=O)CNC(=O)C1CC1c1ccc(C(C)(C)C)c(F)c1 (stereo not shown) [Example 10, 2-(4-Tert-Butyl-3-Fluorophenyl)-N-[2-(1-Methyl-1H-Imidazol-2-yl)-2-Oxoethyl]Cyclopropanecarboxamide]	238 nM
Cn1ccnc1C(=O)CNC(=O)C1CC1(C)c1ccc(C(C)(C)C(F)(F)F)cc1 (stereo not shown) [Example 11, 2-Methyl-N-[2-(1-Methyl-1H-Imidazol-2-yl)-2-Oxoethyl]-2-[4-(2,2,2-Trifluoro-1,1-Dimethylethyl)Phenyl]Cyclopropanecarboxamide]	451 nM
CCn1ccnc1C(=O)CNC(=O)C1CC1(C)c1ccc(C(C)(C)C(F)(F)F)cc1 (stereo not shown) [Example 12, N-[2-(1-Ethyl-1H-Imidazol-2-yl)-2-Oxoethyl]-2-Methyl-2-[4-(2,2,2-Trifluoro-1,1-Dimethylethyl)Phenyl]Cyclopropanecarboxamide]	340 nM
CCn1ccnc1C(=O)CNC(=O)C1CC1c1cc(F)c(C(C)(C)C(F)(F)F)c(F)c1 (stereo not shown) [Example 13, 2-[3,5-Difluoro-4-(2,2,2-Trifluoro-1,1-Dimethylethyl)Phenyl]-N-[2-(1-Ethyl-1H-Imidazol-2-yl)-2-Oxoethyl]Cyclopropanecarboxamide]	69 nM

— patent publication US20110152326A1, “SUBSTITUTED ARYLOXOETHYL CYCLOPROPANECARBOXAMIDE COMPOUNDS AS VR1 RECEPTOR ANTAGONISTS” (priority 2005, published 2011)
